Molecular target: T1, mitochondrial respiratory chain complex I (CI) (Bos taurus, UniProt P03887+P17694+P42026)
T1 construct: gene NDUFS2; whole CI enzyme immunocaptured from purified bovine heart mitochondria
Test: MitoTox Complex I OXPHOS Activity Microplate Assay (immunocaptured enzyme), dose-response
Format: biochemical

T1 sequence (P17694 34-463): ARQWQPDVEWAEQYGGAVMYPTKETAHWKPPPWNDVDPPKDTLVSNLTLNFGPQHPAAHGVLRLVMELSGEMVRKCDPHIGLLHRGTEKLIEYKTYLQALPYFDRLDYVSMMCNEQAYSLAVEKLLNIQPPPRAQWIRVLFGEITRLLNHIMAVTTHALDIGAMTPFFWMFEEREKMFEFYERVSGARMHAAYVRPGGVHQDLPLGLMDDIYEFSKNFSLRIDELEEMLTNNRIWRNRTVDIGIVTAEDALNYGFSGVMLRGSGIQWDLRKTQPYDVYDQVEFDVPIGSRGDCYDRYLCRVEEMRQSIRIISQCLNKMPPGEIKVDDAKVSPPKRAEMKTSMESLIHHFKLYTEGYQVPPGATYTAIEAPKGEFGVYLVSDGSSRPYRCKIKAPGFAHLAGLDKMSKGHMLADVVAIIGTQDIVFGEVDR
T1 sequence (P42026 38-216): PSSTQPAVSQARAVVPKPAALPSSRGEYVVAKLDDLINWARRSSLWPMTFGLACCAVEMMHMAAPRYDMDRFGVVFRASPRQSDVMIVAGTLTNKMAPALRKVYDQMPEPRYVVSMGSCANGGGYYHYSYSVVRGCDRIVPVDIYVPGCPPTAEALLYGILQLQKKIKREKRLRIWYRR
T1 sequence (P03887 whole entry): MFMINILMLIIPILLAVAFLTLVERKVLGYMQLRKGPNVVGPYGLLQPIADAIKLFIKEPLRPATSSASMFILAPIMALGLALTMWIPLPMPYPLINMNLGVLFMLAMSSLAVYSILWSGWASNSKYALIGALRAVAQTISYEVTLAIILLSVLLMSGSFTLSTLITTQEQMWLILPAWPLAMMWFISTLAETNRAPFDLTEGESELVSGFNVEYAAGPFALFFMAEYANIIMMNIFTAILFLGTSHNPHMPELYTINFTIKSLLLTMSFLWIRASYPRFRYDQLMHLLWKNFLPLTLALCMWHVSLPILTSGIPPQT

Cc1cc(-c2nc(-c3ccc(OC(F)(F)F)cc3)no2)nn1Cc1ccnc(N2CCN(C3CC3)CC2)c1 [BAY 87-2243]
IC50: ~500 nM

From article PMC6404347, “CHCHD4 confers metabolic vulnerabilities to tumour cells through its control of the mitochondrial respiratory chain” (Cancer & Metabolism, 2019)
